# Measured values taken from patent US10689421B2, “Bacteriocin-producing Paenibacillus ehimensis and application thereof” (National Pingtung University of Science and Technology, priority 2018, dated 2020).
# Test system: P. ehimensis NPUST-1
# Experiment: Inhibition effect of aquacultural antibiotics against NPUST-1 strain (inhibitory zone)
# Format: cell-based, Paenibacillus ehimensis
# Parameters: inhibitory zone size: unit not given here
# Settings: TSB agar plate containing P. ehimensis NPUST-1; each antibiotic at its maximum concentration for aquaculture (Table 4)
# Description: To find out competent antibiotics for combination with NPUST-1 bacterial strain used as a probiotic, inhibition effect of varies aquacultural antibiotics against NPUST-1 bacterial strain are examined. Detailed testing steps are described as below.
# Following antibiotics are examined: amoxicillin, ampicillin, doxycycline, erythromycin, furazolidone, flumequine, ormetoprim, oxytetracycline, sulfadimethoxine, chloramphenicol, gentamycin and kanamycin. The antibiotics concentration (shown in table 4) being tested are the available maximum concentration conformed to the drug regulation for aquaculture. After all the antibiotics are prepared, use TSB agar plate containing P. ehimensis NPUST-1 to determine the antibacterial activity and measure the inhibitory zone of antibiotics.
row,Compound,inhibitory zone size
1,"CC1(C)S[C@@H]2[C@H](NC(=O)[C@H](N)c3ccc(O)cc3)C(=O)N2[C@H]1C(=O)O [Amoxicillin, amoxicillin]",2.30 ± 0.10
2,"CC[C@H]1OC(=O)[C@H](C)[C@@H](O[C@H]2C[C@@](C)(OC)[C@@H](O)[C@H](C)O2)[C@H](C)[C@@H](O[C@@H]2O[C@H](C)C[C@H](N(C)C)[C@H]2O)[C@](C)(O)C[C@@H](C)C(=O)[C@H](C)[C@@H](O)[C@]1(C)O [Erythromycin, erythromycin]",1.73 ± 0.06
3,"COc1cc(C)c(Cc2cnc(N)nc2N)cc1OC [Ormetoprim, ormetoprim]",4.60 ± 0.00
4,gentamycin,2.03 ± 2.03
5,"C[C@H]1c2cccc(O)c2C(=O)C2=C(O)[C@]3(O)C(=O)C(C(N)=O)=C(O)[C@@H](N(C)C)[C@@H]3[C@@H](O)[C@@H]21 [Doxycycline, doxycycline]",3.30 ± 0.00
6,"O=C1OCCN1/N=C/c1ccc([N+](=O)[O-])o1 [Furazolidone, furazolidone]",1.00 ± 0.00
7,"NC[C@H]1O[C@H](O[C@H]2[C@H](O)[C@@H](O[C@H]3O[C@H](CO)[C@@H](O)[C@H](N)[C@H]3O)[C@H](N)C[C@@H]2N)[C@H](O)[C@@H](O)[C@@H]1O [Kanamycin, kanamycin]",1.13 ± 0.03
8,"O=C(N[C@H](CO)[C@H](O)c1ccc([N+](=O)[O-])cc1)C(Cl)Cl [Chloramphenicol, chloramphenicol]",2.67 ± 0.06
9,"CC1CCc2cc(F)cc3c(=O)c(C(=O)O)cn1c23 (centres unmarked) [Flumequine, flumequine]",5.67 ± 0.06
10,"CN(C)[C@@H]1C(O)=C(C(N)=O)C(=O)[C@@]2(O)C(O)=C3C(=O)c4c(O)cccc4[C@@](C)(O)[C@H]3[C@H](O)[C@@H]12 [Oxytetracycline, oxytetracycline]",2.13 ± 0.06

# Same assay, conditions: in words
row,Compound,resistance of the strain NPUST-1 against the antibiotic
1,"CC1(C)S[C@@H]2[C@H](NC(=O)[C@H](N)c3ccccc3)C(=O)N2[C@H]1C(=O)O [Ampiciliin, ampicillin]",resistance
2,Cc1ccnc(NS(=O)(=O)c2ccc(N)cc2)n1 [sulfamerazine],resistance

# Same assay, conditions: in words; antibiotic at maximum concentration for aquaculture
row,Compound,inhibition effect against P. ehimensis NPUST-1
1,"CC1(C)S[C@@H]2[C@H](NC(=O)[C@H](N)c3ccccc3)C(=O)N2[C@H]1C(=O)O [Ampiciliin, ampicillin]",no inhibition effect
2,"COc1cc(NS(=O)(=O)c2ccc(N)cc2)nc(OC)n1 [Sulfadimethoxine, sulfadimethoxine]",no inhibition effect
